{"source": "patent US5536850A", "about": "“Substance DC114-A1” (Kyowa Hakko Kogyo Co., Ltd., priority 1993, dated 1996)", "key": {"HeLaS3 cells": {"tested_on": "HeLaS3 cells", "experiment": "Growth inhibition against HeLaS3 cells", "type": "cell-based", "settings": "Homo sapiens, HeLa S3, 1 h", "protocol": "HeLaS3 cells (ATCC HTB22) were suspended in a medium comprising 10% fetal calf serum, 2 mM glutamine and MEM medium (produced by Nissui Pharmaceutical Co., Ltd.) (hereinafter referred to as medium A) to a concentration of 3×10^4 cells/ml. The cell suspension was put into wells of a 96-well microtiter plate in an amount of 0.1 ml per well. The cells in the plate were cultured at 37° C. for 20 hours in a CO2 -incubator. Subsequently, the test compound appropriately diluted with medium A was added to the wells in an amount of 0.1 ml/well. The cells were further cultured at 37° C. for one hour in the CO2 -incubator, and then the culture supernatant was removed. To the residue was added a medium comprising medium A and 0.02% Neutral Red in an amount of 0.1 ml per well, followed by culturing at 37° C. for one hour in the CO2 -incubator, whereby the cells were stained. After removal of the culture supernatant, the residue was washed once with physiological saline. The pigment was extracted with 0.001 N hydrochloric acid/30% ethanol, and the absorbance at 550 nm was measured by using a microplate reader. The concentration of the test compound at which the growth of the cells is inhibited by 50% (IC50) was calculated by comparing the absorbance of untreated cells with those of the cells treated with the test compound at known concentrations."}, "[1]": {"tested_on": "Bacillus subtilis No. 10707", "experiment": "Antibacterial activity, MIC by agar dilution method", "type": "cell-based", "protocol": "(§1) The antibacterial activity was determined by the agar dilution method using a medium (pH 7) which comprises 3 g/l Bacto-tryptone (produced by Difco Laboratories), 3 g/l meat extract, 1 g/l yeast extract, 1 g/l glucose and 16 g/l agar."}, "[2]": {"tested_on": "Candida albicans ATCC 10231", "experiment": "Antibacterial activity, MIC by agar dilution method", "type": "cell-based", "protocol": "as §1"}, "[3]": {"tested_on": "Enterococcus faecium ATCC 10541", "experiment": "Antibacterial activity, MIC by agar dilution method", "type": "cell-based", "protocol": "as §1"}, "[4]": {"tested_on": "Pseudomonas aeruginosa Bin H No. 1", "experiment": "Antibacterial activity, MIC by agar dilution method", "type": "cell-based", "settings": "pH 7", "protocol": "as §1"}, "[5]": {"tested_on": "Salmonella typhi ATCC 9992", "experiment": "Antibacterial activity, MIC by agar dilution method", "type": "cell-based", "settings": "Salmonella enterica, pH 7", "protocol": "as §1"}, "[6]": {"tested_on": "Proteus vulgaris ATCC 6897", "experiment": "Antibacterial activity, MIC by agar dilution method", "type": "cell-based", "protocol": "as §1"}, "[7]": {"tested_on": "Staphylococcus aureus ATCC 6538P", "experiment": "Antibacterial activity, MIC by agar dilution method", "type": "cell-based", "settings": "ATCC6538P, pH 7", "protocol": "as §1"}, "[8]": {"tested_on": "Klebsiella pneumoniae ATCC 10031", "experiment": "Antibacterial activity, MIC by agar dilution method", "type": "cell-based", "protocol": "as §1"}, "[9]": {"tested_on": "Shigella sonnei ATCC 9290", "experiment": "Antibacterial activity, MIC by agar dilution method", "type": "cell-based", "settings": "ATCC9290, pH 7", "protocol": "as §1"}, "Escherichia coli ATCC 26": {"tested_on": "Escherichia coli ATCC 26", "experiment": "Antibacterial activity, MIC by agar dilution method", "type": "cell-based", "settings": "ATCC26, pH 7", "protocol": "as §1"}, "Solubility": {"experiment": "Solubility", "type": "physicochemical"}}, "note": "Where two headings read alike, the source gives them in different places.", "data": [{"smiles": "Cc1cc2c(O)c3c(cc2c2oc(C4(C)OC4C4CO4)cc(=O)c12)C(=O)C1OC1(C1CC(=O)C(O)C(C)O1)C3O", "note": "(centres unmarked) [DC114-C, reference compound]", "values": [{"measurement": "IC50", "setting": "HeLaS3 cells; HeLaS3 cells, one hour with compound, 37° C., Neutral Red, absorbance at 550 nm, read-out: IC50", "value": 21, "unit": "nM"}, {"measurement": "MIC", "setting": "[1]; Bacillus subtilis No. 10707, agar dilution, pH 7, read-out: MIC", "value": 0.33, "unit": "µg/mL"}, {"measurement": "MIC", "setting": "[2]; ATCC10231, Candida albicans ATCC 10231, agar dilution, pH 7, read-out: MIC", "value": "> 83.3", "unit": "µg/mL"}, {"measurement": "MIC", "setting": "[3]; ATCC10541, Enterococcus faecium ATCC 10541, agar dilution, pH 7, read-out: MIC", "value": 0.16, "unit": "µg/mL"}, {"measurement": "MIC", "setting": "[4]; Pseudomonas aeruginosa Bin H No. 1, agar dilution, read-out: MIC", "value": 41.7, "unit": "µg/mL"}, {"measurement": "MIC", "setting": "[5]", "value": 20.8, "unit": "µg/mL"}, {"measurement": "MIC", "setting": "[6]; ATCC6897, Proteus vulgaris ATCC 6897, agar dilution, pH 7, read-out: MIC", "value": 5.21, "unit": "µg/mL"}, {"measurement": "MIC", "setting": "[7]; Staphylococcus aureus ATCC 6538P, agar dilution, read-out: MIC", "value": 0.16, "unit": "µg/mL"}, {"measurement": "MIC", "setting": "[8]; ATCC10031, Klebsiella pneumoniae ATCC 10031, agar dilution, pH 7, read-out: MIC", "value": 5.21, "unit": "µg/mL"}, {"measurement": "MIC", "setting": "[9]", "value": 20.8, "unit": "µg/mL"}, {"measurement": "MIC", "setting": "Escherichia coli ATCC 26", "value": 20.8, "unit": "µg/mL"}]}, {"smiles": "Cc1cc2c(O)c3c(cc2c2oc(C4(C)OC4C4CO4)cc(=O)c12)C(=O)C1OC1(C1CC(=O)C(O)C(C)O1)C3=O", "note": "(centres unmarked) [DC114-A1]", "values": [{"measurement": "IC50", "setting": "HeLaS3 cells", "value": 12, "unit": "nM"}, {"measurement": "MIC", "setting": "[1]; Bacillus subtilis, NO.10707, pH 7", "value": 0.33, "unit": "µg/mL"}, {"measurement": "MIC", "setting": "[2]; Candida albicans, ATCC10231, pH 7", "value": 5.21, "unit": "µg/mL"}, {"measurement": "MIC", "setting": "[3]; Enterococcus faecium, ATCC10541, pH 7", "value": 0.16, "unit": "µg/mL"}, {"measurement": "MIC", "setting": "[4]; Pseudomonas aeruginosa", "value": 5.21, "unit": "µg/mL"}, {"measurement": "MIC", "setting": "[5]", "value": 5.21, "unit": "µg/mL"}, {"measurement": "MIC", "setting": "[6]; Proteus vulgaris, ATCC6897, pH 7", "value": 2.6, "unit": "µg/mL"}, {"measurement": "MIC", "setting": "[7]; Staphylococcus aureus", "value": 0.04, "unit": "µg/mL"}, {"measurement": "MIC", "setting": "[8]; Klebsiella pneumoniae, ATCC10031, pH 7", "value": 5.21, "unit": "µg/mL"}, {"measurement": "MIC", "setting": "[9]", "value": 5.21, "unit": "µg/mL"}, {"measurement": "MIC", "setting": "Escherichia coli ATCC 26", "value": 5.21, "unit": "µg/mL"}, {"measurement": "Solubility", "setting": "Solubility; acetone", "value": "Soluble"}, {"measurement": "Solubility", "setting": "Solubility; chloroform", "value": "sparingly soluble"}, {"measurement": "Solubility", "setting": "Solubility; dimethylsulfoxide (DMSO)", "value": "Soluble"}, {"measurement": "Solubility", "setting": "Solubility; ethyl acetate", "value": "sparingly soluble"}, {"measurement": "Solubility", "setting": "Solubility; methanol", "value": "Soluble"}, {"measurement": "Solubility", "setting": "Solubility; n-hexane", "value": "sparingly soluble"}, {"measurement": "Solubility", "setting": "Solubility; water", "value": "sparingly soluble"}]}]}
